# Measured values reported in PubChem BioAssay AID1963864 (Molecular Pharmacology Branch, DTP, NCI, 2024).
# Tested on: KRAS PDC multicell spheroid viability
# Assay: Anticancer human tumor 521955-158-R6-J3-PDC patient-derived pancreatic carcinoma cell line growth inhibition [KRAS2]
# Settings: for IC50: curve of first compound; for viability, T/C: stronger effect = lower value
# Outline: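 KRAS-mutant tumor cells were grown as spheroids with HUVEC endothelial cells and human MSCs as stroma. Targeted agents were tested alone and with KRAS pathway inhibitors. Doses started at or near clinical Cmax, or 10 microM, descending half-log.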
# [1] = second compound 0.1 µM, first compound 0.0316 µM
# [2] = second compound 0.1 µM, first compound 0.1 µM
# [3] = second compound 0.1 µM, first compound 0.316 µM
# [4] = second compound 0.1 µM, first compound 1 µM
# [5] = second compound 0.1 µM, first compound 3.16 µM
# [6] = second compound 0.1 µM, first compound 10 µM
# [7] = second compound 0.316 µM, first compound 0.0316 µM
# [8] = second compound 0.316 µM, first compound 0.1 µM
# [9] = second compound 0.316 µM, first compound 0.316 µM
# [10] = second compound 0.316 µM, first compound 1 µM
# [11] = second compound 0.316 µM, first compound 3.16 µM
# [12] = second compound 0.316 µM, first compound 10 µM
# [13] = second compound 1 µM, first compound 0.0316 µM
# [14] = second compound 1 µM, first compound 0.1 µM
# [15] = second compound 1 µM, first compound 0.316 µM
# [16] = second compound 1 µM, first compound 1 µM
# [17] = second compound 1 µM, first compound 3.16 µM
# [18] = second compound 1 µM, first compound 10 µM
# [19] = second compound 3.16 µM, first compound 0.0316 µM
# [20] = second compound 3.16 µM, first compound 0.1 µM
# [21] = second compound 3.16 µM, first compound 0.316 µM
# [22] = second compound 3.16 µM, first compound 1 µM
# [23] = second compound 3.16 µM, first compound 3.16 µM
# [24] = second compound 3.16 µM, first compound 10 µM
# [25] = second compound 10 µM, first compound 0.0316 µM
# [26] = second compound 10 µM, first compound 0.1 µM
# [27] = second compound 10 µM, first compound 0.316 µM
# [28] = second compound 10 µM, first compound 1 µM
# [29] = second compound 10 µM, first compound 3.16 µM
# [30] = second compound 10 µM, first compound 10 µM
# [31] = second compound 0.1 µM, first compound 0.01 µM
# [32] = second compound 0.316 µM, first compound 0.01 µM
# [33] = second compound 1 µM, first compound 0.01 µM
# [34] = second compound 3.16 µM, first compound 0.01 µM
# [35] = second compound 10 µM, first compound 0.01 µM
# 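Note: drug exposure lasted seven days.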
# 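Throughout, for viability, T/C: 100% = DMSO vehicle wells and lower means fewer viable cells.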
Structure (SMILES),IC50 (second compound 0.1 µM) [µM],IC50 (second compound 0.316 µM) [µM],IC50 (second compound 1 µM) [µM],IC50 (second compound 3.16 µM) [µM],IC50 (second compound 10 µM) [µM],"viability, T/C [1] [%]","viability, T/C [2] [%]","viability, T/C [3] [%]","viability, T/C [4] [%]","viability, T/C [7] [%]","viability, T/C [8] [%]","viability, T/C [9] [%]","viability, T/C [10] [%]","viability, T/C [13] [%]","viability, T/C [14] [%]","viability, T/C [15] [%]","viability, T/C [16] [%]","viability, T/C [19] [%]","viability, T/C [20] [%]","viability, T/C [21] [%]",further results
CC(C)NCC(C(=O)N1CCN(c2ncnc3c2C(C)CC3O)CC1)c1ccc(Cl)cc1 (stereo not given) + CC1OCC2(CCN(c3cnc(Sc4ccnc(N)c4Cl)c(N)n3)CC2)C1N,> 10,> 10,> 10,1.35,0.643,86.9,77.1,68.8,68.7,84.3,71.4,61.1,63.5,78.1,74.6,60.7,54.7,86.9,78.7,59.7,"viability, T/C [5]: 61.7%; viability, T/C [6]: 56%; viability, T/C [11]: 60.2%; viability, T/C [12]: 48.9%; viability, T/C [17]: 50.9%; viability, T/C [18]: 51.7%; viability, T/C [22]: 53%; viability, T/C [23]: 47.5%; viability, T/C [24]: 43.3%; viability, T/C [25]: 102%; viability, T/C [26]: 73.8%; viability, T/C [27]: 56.7%; viability, T/C [28]: 43.9%; viability, T/C [29]: 44.2%; viability, T/C [30]: 34.1%"
CC1COCCN1c1cc(-c2ccnn2C)c2ccnc(-c3ccn[nH]3)c2n1 (stereo not given) + CC1OCC2(CCN(c3cnc(Sc4ccnc(N)c4Cl)c(N)n3)CC2)C1N,> 3.16,> 3.16,> 3.16,> 3.16,> 3.16,81.1,73.9,67.6,67.3,84.5,74.6,64.3,71.2,84.8,81.4,76.7,68.3,109,99.9,75.8,"viability, T/C [31]: 87.9%; viability, T/C [5]: 75.2%; viability, T/C [32]: 89.9%; viability, T/C [11]: 64.4%; viability, T/C [33]: 91.9%; viability, T/C [17]: 61%; viability, T/C [34]: 102%; viability, T/C [22]: 67.8%; viability, T/C [23]: 66.6%; viability, T/C [35]: 108%; viability, T/C [25]: 115%; viability, T/C [26]: 90.7%; viability, T/C [27]: 87.6%; viability, T/C [28]: 79.3%; viability, T/C [29]: 64.9%"
CCN1CCN(Cc2ccc(Nc3ncc(F)c(-c4cc(F)c5nc(C)n(C(C)C)c5c4)n3)nc2)CC1 + CC1OCC2(CCN(c3cnc(Sc4ccnc(N)c4Cl)c(N)n3)CC2)C1N,> 1,> 1,> 1,> 1,> 1,73,68.4,76,88.2,82.3,69.2,71.8,85.3,97,82.1,78.8,90.1,84.4,78.7,83.6,"viability, T/C (second compound 0.1 µM, first compound 0.00316 µM): 81.3%; viability, T/C [31]: 79.9%; viability, T/C (second compound 0.316 µM, first compound 0.00316 µM): 101%; viability, T/C [32]: 84.1%; viability, T/C (second compound 1 µM, first compound 0.00316 µM): 94.5%; viability, T/C [33]: 91.2%; viability, T/C (second compound 3.16 µM, first compound 0.00316 µM): 113%; viability, T/C [34]: 109%; viability, T/C [22]: 115%; viability, T/C (second compound 10 µM, first compound 0.00316 µM): 118%; viability, T/C [35]: 116%; viability, T/C [25]: 111%; viability, T/C [26]: 114%; viability, T/C [27]: 95.1%; viability, T/C [28]: 86.7%"
CCNC(=O)CC1N=C(c2ccc(Cl)cc2)c2cc(OC)ccc2-n2c(C)nnc21 (stereo not given) + CC1OCC2(CCN(c3cnc(Sc4ccnc(N)c4Cl)c(N)n3)CC2)C1N,> 10,> 10,> 10,> 10,1.07,84.1,83.5,58.9,73.5,102,90.3,69.3,68.1,99.5,86.6,70.8,65.9,106,103,77,"viability, T/C [5]: 62.6%; viability, T/C [6]: 73.3%; viability, T/C [11]: 56.4%; viability, T/C [12]: 62.2%; viability, T/C [17]: 56.4%; viability, T/C [18]: 59.8%; viability, T/C [22]: 62.6%; viability, T/C [23]: 58%; viability, T/C [24]: 53.3%; viability, T/C [25]: 115%; viability, T/C [26]: 105%; viability, T/C [27]: 76.4%; viability, T/C [28]: 50%; viability, T/C [29]: 43.2%; viability, T/C [30]: 43%"
Cn1nccc1Nc1nccc(-c2cc3c(s2)C(C)(C)N(CCN2CCOCC2)C3=O)n1 + CC1OCC2(CCN(c3cnc(Sc4ccnc(N)c4Cl)c(N)n3)CC2)C1N,> 10,> 10,7.94,2.83,1.51,89.8,93.9,94.2,81.2,93.9,95.5,90.3,67.4,88.4,98,82.2,72.2,82.1,88.4,72.7,"viability, T/C [5]: 68.4%; viability, T/C [6]: 62.6%; viability, T/C [11]: 63.7%; viability, T/C [12]: 57.1%; viability, T/C [17]: 53.7%; viability, T/C [18]: 49.2%; viability, T/C [22]: 59.9%; viability, T/C [23]: 47.8%; viability, T/C [24]: 47.7%; viability, T/C [25]: 93.2%; viability, T/C [26]: 86.6%; viability, T/C [27]: 71.9%; viability, T/C [28]: 53.6%; viability, T/C [29]: 43.4%; viability, T/C [30]: 39.5%"
